According to patent publication EP4702986A1, “POLYPEPTIDE AND USE THEREOF” (Biocells (Beijing) Biotech Co., Ltd., priority 2023, dated 2024):
Read-outs that look alike come from different tables or passages of the source. Numbered stars: 1 amine (or outer) side, 2 acyl side, 3 side chain; on linkers, the order of the positions; unused ones are H or OH. Side chains are listed from the residue outwards. Ends that are not written are not given here. Peptide text beside a SMILES is read from it. * marks the point of attachment. X1 = C[C@H](NC(=O)[C@@H]1CCCN1C(=O)[C@@H](N)CSC1CC(=O)N(CCC(=O)*)C1=O)C(=O)N[C@@H](CCCCN)C(=O)O; C18 diacid = O=C(O)CCCCCCCCCCCCCCCCC(=O)*; γGlu = O=C(O)[C@H](CCC(=O)[*:2])N[*:1]; Fumaroyl = O=C(O)/C=C/C(=O)*; Suc = O=C(CCC(=O)[*:2])[*:1]; Lauroyl = CCCCCCCCCCCC(=O)*; AEEA = NCCOCCOCC(=O)O

How the values were obtained:
human ETA receptor = target: T1, human ETA receptor (Homo sapiens, UniProt P25101); assay: Selectivity of polypeptides on human ETA receptor (IP-One Gq kit, % of positive control ET1); format: cell-based
T1 construct: expressed in transfected cells; host or cells: 293T-17 cells, transient transfection
T1 sequence (P25101 21-427): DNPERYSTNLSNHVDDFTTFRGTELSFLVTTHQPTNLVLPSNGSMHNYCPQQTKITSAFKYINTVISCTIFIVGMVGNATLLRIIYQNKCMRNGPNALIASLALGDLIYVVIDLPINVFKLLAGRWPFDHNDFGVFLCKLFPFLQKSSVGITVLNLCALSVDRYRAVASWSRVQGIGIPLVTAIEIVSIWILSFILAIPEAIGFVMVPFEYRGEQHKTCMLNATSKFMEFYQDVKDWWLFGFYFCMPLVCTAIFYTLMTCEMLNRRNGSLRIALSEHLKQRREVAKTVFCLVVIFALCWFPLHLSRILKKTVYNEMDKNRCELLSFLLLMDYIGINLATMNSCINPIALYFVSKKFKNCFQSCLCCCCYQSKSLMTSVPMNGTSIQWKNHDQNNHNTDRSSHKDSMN
In short: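 293T-17 cells transiently transfected with human ETA receptor (48 h), 30,000 cells/well exposed to polypeptides for 1 h at 37°C; IP1 accumulation by HTRF (665/620 nm ratio). Activity given as % of ET1 at the same concentration after PBS-control subtraction.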

[1] = Determination of half-lives of polypeptides (plasma, LC-MS); conditions: for half-life: C57 BL/6, mouse, plasma, iv; for AUClast 0-30 min: C57 BL/6 mice, i.v., dosage per compound 0.48, 0.96 or 1 mpk
human ETB receptor = target: T2, human ETB receptor (Homo sapiens, UniProt P24530); assay: Screening of polypeptides for activity on human ETB receptor (IP-One Gq kit, % of positive control IRL1620); format: cell-based
T2 construct: expressed in transfected cells; host or cells: 293T-17 cells, transient transfection
T2 sequence (P24530 27-442): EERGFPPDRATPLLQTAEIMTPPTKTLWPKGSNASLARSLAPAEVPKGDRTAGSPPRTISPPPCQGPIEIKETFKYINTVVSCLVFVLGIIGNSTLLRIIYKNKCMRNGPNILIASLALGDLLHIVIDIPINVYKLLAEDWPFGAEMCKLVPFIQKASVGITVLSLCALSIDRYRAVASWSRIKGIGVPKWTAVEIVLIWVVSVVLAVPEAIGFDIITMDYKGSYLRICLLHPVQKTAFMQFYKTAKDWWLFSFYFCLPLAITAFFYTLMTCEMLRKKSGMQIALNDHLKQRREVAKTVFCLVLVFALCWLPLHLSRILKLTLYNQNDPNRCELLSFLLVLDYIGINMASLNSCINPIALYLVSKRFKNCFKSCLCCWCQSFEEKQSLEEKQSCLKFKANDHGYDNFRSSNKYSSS
Protocol: 293T-17 cells were seeded at a density of 650,000 cells per well in a 6-well plate and cultured overnight in an incubator at 37°C and 5% CO2. Afterward, the cells were transfected with an expression vector, PCDNA3.1-hETB which contained a human ETB receptor gene, at a plasmid concentration of 2.5 µg per well. The cells were further cultured for 48 hours, and green fluorescence expression was observed under a fluorescence microscope. The cells were then digested with trypsin and counted. The activity of compounds on the human ETB receptor was determined with the IP-One Gq kit from Cisbio Bioassays. The cells were suspended in Stim Buffer provided in the kit and the cell suspension was added to a 96-well detection plate at 7 µL cell suspension (containing 30,000 cells) per well. The polypeptides to be screened for activity (prepared according to the Preparation Example of the invention) and polypeptide IRL1620 as positive control were dissolved in Stim B to be at a concentration of 2×, and 7 µL was added to the test cells, while 7 µL of PBS solution was added to the cells in the negative control wells. IRL1620 was used as the positive control polypeptide. The plate was sealed and incubated at 37°C for 1 hour in a cell culture incubator. Test wells, positive control wells, and PBS control wells were each added with 3 µL of IP1 d2 working solution and 3 µL of IP1 Tb cryptotate Antibody working solution. The plate was then sealed and incubated in the dark at room temperature (25°C±5°C) for 1 hour. The plate seal was removed, and the […] at 665 nm and 620 nm was measured with an ID5 microplate reader. The ratio of the acceptor emission signal to the donor emission signal, i.e., the value of (signal at 665 nm/signal at 620 nm)×10^4, was calculated for each well. With F1 representing the average value of values of signal at 665 nm/signal at 620 nm determined for the test sample at a specific concentration, F2 representing the average value of values of signal at 665 nm/signal at 620 nm determined for the positive control IRL1620 at the same concentration, and T1 representing the average value of values of signal at 665 nm/signal at 620 nm determined for the PBS negative control, the percentage of activity of the test polypeptide sample relative to the positive control sample IRL1620 is equal to (F1-T1)×100/(F2-T1). hETB sequence (NCBI accession number NM_000115.5).

[2] = read-out: hETAR agonist activity, percentage of activity relative to ET1

CCCCCCCCCCCC(=O)N[C@@H](CCC(=O)NCCOCCOCC(=O)NCCCC[C@H](NC(=O)[C@H](Cc1c[nH]cn1)NC(=O)[C@H](C)NC(=O)[C@H](Cc1ccccc1)NC(=O)[C@H](Cc1ccc(O)cc1)NC(=O)[C@@H](NC(=O)[C@H](C)NC(=O)[C@H](CCC(=O)O)NC(=O)[C@H](CCC(=O)O)NC(=O)[C@H](CC(=O)O)NC(=O)/C=C/C(=O)O)C(C)C)C(=O)N[C@@H](CC(=O)O)C(=O)N[C@H](C(=O)N[C@H](C(=O)N[C@@H](Cc1c[nH]c2ccccc12)C(=O)O)[C@@H](C)CC)C(C)C)C(=O)O [BX229-Na] (Fumaroyl-DEEAVYFAHK([AEEA-γGlu-Lauroyl])DVIW-OH)
activation at 100 µM (human ETA receptor; @100µM, read-out: hETAR agonist activity, percentage of activity relative to ET1): 0.68%

CC[C@H](C)[C@H](NC(=O)[C@H](CC(=O)O)NC(=O)[C@H](CCCCNC(=O)COCCOCCNC(=O)COCCOCCNC(=O)CC[C@H](NC(=O)CCCCCCCCCCCCCCCCC(=O)O)C(=O)O)NC(=O)[C@H](Cc1c[nH]cn1)NC(=O)[C@H](C)NC(=O)[C@H](Cc1ccccc1)NC(=O)[C@H](Cc1ccc(O)cc1)NC(=O)[C@@H](NC(=O)[C@H](C)NC(=O)[C@H](CCC(=O)O)NC(=O)[C@H](CCC(=O)O)NC(=O)[C@H](CC(=O)O)NC(=O)/C=C/C(=O)O)C(C)C)C(=O)N[C@H](C(=O)N[C@@H](Cc1c[nH]c2ccccc12)C(=O)O)[C@@H](C)CC [BX-34] (Fumaroyl-DEEAVYFAHK([AEEA-AEEA-γGlu-C18 diacid])DIIW-OH)
activation at 0.01 µM (human ETA receptor; [2]): -23.5%
activation at 0.1 µM (human ETA receptor; [2]): -11%
half-life [1]: 63 min
AUClast 0-30 min [1]: 7736 ng·h/mL

CC[C@H](C)[C@H](NC(=O)[C@H](CC(=O)O)NC(=O)[C@H](CCCCNC(=O)COCCOCCNC(=O)CCN1C(=O)CC(SC[C@H](N)C(=O)N2CCC[C@H]2C(=O)N[C@@H](C)C(=O)N[C@@H](CCCCN)C(=O)O)C1=O)NC(=O)[C@H](Cc1c[nH]cn1)NC(=O)[C@H](C)NC(=O)[C@H](Cc1ccccc1)NC(=O)[C@H](Cc1ccc(O)cc1)NC(=O)[C@@H](NC(=O)[C@H](C)NC(=O)[C@H](CCC(=O)O)NC(=O)[C@H](CCC(=O)O)NC(=O)[C@H](CC(=O)O)NC(=O)/C=C/C(=O)O)C(C)C)C(=O)N[C@H](C(=O)N[C@@H](Cc1c[nH]c2ccccc12)C(=O)O)[C@@H](C)CC (stereo partly shown) [BX-95] (Fumaroyl-DEEAVYFAHK([AEEA-X1])DIIW-OH)
activation at 10 µM (human ETA receptor; [2]): -9.81%
activation at 100 µM (human ETA receptor; [2]): -7.46%

CCCCCCCCCCCC(=O)N[C@@H](CCC(=O)NCCOCCOCC(=O)NCCCC[C@H](NC(=O)[C@H](Cc1c[nH]cn1)NC(=O)[C@H](C)NC(=O)[C@H](Cc1ccccc1)NC(=O)[C@H](Cc1ccc(O)cc1)NC(=O)[C@@H](NC(=O)[C@H](C)NC(=O)[C@H](CCC(=O)O)NC(=O)[C@H](CCC(=O)O)NC(=O)[C@H](CC(=O)O)NC(=O)/C=C/C(=O)O)C(C)C)C(=O)N[C@@H](CC(=O)O)C(=O)N[C@H](C(=O)N[C@H](C(=O)N[C@@H](Cc1c[nH]c2ccccc12)C(=O)O)[C@@H](C)CC)[C@@H](C)CC)C(=O)O [BX-225] (Fumaroyl-DEEAVYFAHK([AEEA-γGlu-Lauroyl])DIIW-OH)
activation at 10 µM (human ETA receptor; [2]): 0.52%
activation at 100 µM (human ETA receptor; [2]): 3.59%
half-life [1]: 37 min
AUClast 0-30 min [1]: 4981 ng·h/mL

CC[C@H](C)[C@H](NC(=O)[C@H](CC(=O)O)NC(=O)[C@H](CC(C)C)NC(=O)[C@H](Cc1c[nH]cn1)NC(=O)[C@H](C)NC(=O)[C@H](Cc1ccccc1)NC(=O)[C@H](Cc1ccc(O)cc1)NC(=O)[C@@H](NC(=O)[C@H](C)NC(=O)[C@H](CCC(=O)O)NC(=O)[C@H](CCC(=O)O)NC(=O)[C@H](CC(=O)O)NC(=O)CCC(=O)O)C(C)C)C(=O)N[C@H](C(=O)N[C@@H](Cc1c[nH]c2ccccc12)C(=O)O)[C@@H](C)CC [IRL1620, reference compound] (Suc-DEEAVYFAHLDIIW-OH)
half-life [1]: < 2.6 min
AUClast 0-30 min [1]: 130 ng·h/mL

Fum-DEEEVYFAHKDIIW (Fumaroyl-DEEEVYFAHKDIIW) [BX-52]
hETAR agonist activity, percentage of activity relative to ET1 (human ETA receptor; @10nM): -2.49%@10nM
hETAR agonist activity, percentage of activity relative to ET1 (human ETA receptor; @100nM): -11.24%@100nM
hETBR agonist activity, percentage of activity relative to IRL1620 (human ETB receptor): 121.00%@100nM
hETBR agonist activity, percentage of activity relative to IRL1620 (human ETB receptor; @10nM): 145.60%@10nM

Fum-DEEEVYFAHOrnDIIW [BX-59]
hETAR agonist activity, percentage of activity relative to ET1 (human ETA receptor): -7.67%@100µM
hETAR agonist activity, percentage of activity relative to ET1 (human ETA receptor; @10µM): -10.61%@10µM
hETBR agonist activity, percentage of activity relative to IRL1620 (human ETB receptor): 93.46%@100nM
hETBR agonist activity, percentage of activity relative to IRL1620 (human ETB receptor; @10nM): 125.64%@10nM

Suc-DE cyclo(CEEC)YFAHKDIIW (Suc-DECEECYFAHKDIIW; not fully specified (bridges); printed as Suc-DE cyclo(CEEC)YFAHKDIIW; also: cyclo(CEEC) in N-terminal extension, bond type not given here) [BX-57]
hETAR agonist activity, percentage of activity relative to ET1 (human ETA receptor): -10.53%@100µM
hETAR agonist activity, percentage of activity relative to ET1 (human ETA receptor; @10µM): -29.04%@10µM
hETBR agonist activity, percentage of activity relative to IRL1620 (human ETB receptor): 121.58%@100nM
hETBR agonist activity, percentage of activity relative to IRL1620 (human ETB receptor; @10nM): 86.20%@10nM
